Measured values as given in patent EP4050002A1, “ANTI-PROLIFERATIVE AGENTS” (First Health Pharmaceuticals B.V., priority 2021, dated 2022).
Like-named read-outs stand apart in the source and are kept apart here.

Assay: Pharmacokinetic studies, single administration
Type: in vivo, male Swiss albino mice
Conditions: for MRT last: read-out: MRT0-last
Method: The pharmacokinetic study was performed in male Swiss albino mice from Hylasco Biotechnology Pvt. Ltd. (A Charles River technology Licensee). The tissue distribution study was performed in male Swiss albino mice and in male FOXN1^nu/nu nude mice (Envigo spa). The efficacy study was performed in male FOXN1^nu/nu nude mice.
Single intravenous administration studies were done as follows: • 1. Compound 5 • dose: 1 mg/kg • dose concentration: 0.2 mg/ml in 10% DMSO and 10% Solutol in WFI (90%). • volume: 5 ml/kg • blood withdrawal time points: 0.083, 0.25, 0.5, 1, 2, 4, 8, 24 hours post administration • 2. Compound 3 • […] • dose concentration: 0.2 mg/ml in 10% DMSO and 10% Solutol in WFI (90%). • volume: 5 ml/kg • blood withdrawal time points: 0.083, 0.25, 0.5, 1, 2, 4, 8, 24 hours post administration
Single intraperitoneal administration studies were done as follows: • 1. Compound 5 • dose 1: 45 mg/kg • dose concentration: […] in 10% DMSO, 5% TWEEN 80 and WFI (85%) • volume: 5 ml/kg • blood withdrawal time points: 0.25, 0.5, 1, 2, 4, 6, 8, 24 hours post administration • brain, liver and lungs collected at 4, 8 and 24 hours • 2. Compound 5 • dose 2: 10 mg/kg • dose concentration: 2 mg/ml in 10% DMSO, 10% Solutol and WFI (90%). • volume: 5 ml/kg • blood withdrawal time points: 0.25, 0.5, 1, 2, 4, 6, 8, 24 hours post administration
Single oral administration studies were done as follows: • 1. Compound 5 • dose: 45 mg/kg • dose concentration: 4.5 mg/ml in Labrasol (30%), Capmul PG 8 (30%), Cremophor EL (10%) and PEG (30%) • volume given by oral gavage: 10 ml/Kg • blood withdrawal time points: 0.08, 0.25, 0.5, 1, 2, 4, 6, 8, 24 hours post administration
Single intra tracheal administration studies were done as follows: • 1. Compound 5 • dose: 0.08 mg/kg • dose concentration: 0.04 mg/ml in DMSO (1%) and WFI (99%) • volume given by intra tracheal route: 2 ml/Kg • blood withdrawal time points: 0.03, 0.08, 0.17, 0.25, 0.75, 1.5, 2, 4 hours post administration
Animals were observed up to 24 hours after dose administration for behavioral or physical alterations. For blood withdrawal, mice were anesthetized using gaseous anesthesia and 0.2 to 0.3 ml of blood samples were collected in Li-Heparin containing tubes at the time points above indicated, stored on ice, centrifuged within 15 minutes to separate plasma at 1540 ref (5000 rpm) at 4°C for 10 minutes; plasma was separated and transferred to new tubes.
Selected organs were collected at 4, 8 and 24 hours for drug distribution studies: mice were anesthetized and intra-cardiac whole body perfusion was performed using chilled saline. Separated tissues were immediately washed, dried, weighed and frozen at -80±10°C until homogenization. The levels of compound in the tissues and in plasma were quantified by LC-MS/MS, using as instrument Q-TRAP 500, with a column Phenomenex, KINETEX 5µ EVO C18 50 mm X 4.5 mm (Phenomenex). The mobile phase employed was composed as follows: aqueous reservoir, 10 mM Ammonium Acetate with 0.1% Formic acid in MilliQ water; organic reservoir, Acetonitrile:Methanol (50:50, v/v); flow rate 1 ml/min; injection volume 10µl; rinsing solution, Acetonitrile:Methanol:Water (20:60:20, v/v).
Calibration Curve & Quality Control samples preparation: 0.5 µl of calibration curve standards were diluted 25X with blank matrix (i.e. Acetonitrile:Methanol (1:1, v/v)) and precipitated with 200 µl of acetonitrile containing internal standard at 200 ng/ml concentration, then vortexed for 5 min at 850 rpm, centrifuged at 4000 rpm for 5 min at 4°C, from this 110 µl of supernatant was separated and diluted with 130 µl of methanol:water, (1:1 v/v) .
Telmisartan (200 ng/ml) was used as internal standard. Telmisartan was spiked in 100% acetonitrile to a final concentration of 200 ng/ml. […]

[1] = I.P. 1, 45 mg/kg, TWEEN-based vehicle
[2] = I.P. 2, 10 mg/kg, Solutol-based vehicle
[3] = mouse, in vivo, iv, I.V., 1 mg/kg
[4] = mouse, plasma, ip, I.P. 1, 45 mg/kg, TWEEN-based vehicle
[5] = mouse, plasma, ip, I.P. 2, 10 mg/kg, Solutol-based vehicle
[6] = mouse, plasma, iv, I.V., 1 mg/kg
[7] = mouse, plasma, po, P.O., 45 mg/kg
[8] = mouse, plasma, I.T., 0.08 mg/kg

## CCCCc1cn(-c2ccc(-c3nnc(-c4ccccc4C(F)(F)F)o3)cc2)nn1 [Compound 5]
[1]
  AUCExtra: 14.86%
  F: 136%
[2]
  AUCExtra: 5.02%
  F: 135%
I.T., 0.08 mg/kg
  AUCExtra: 2.92%
I.V., 1 mg/kg
  AUCExtra: 3.98%
P.O., 45 mg/kg
  AUCExtra: 16.91%
  F: 95%
mouse, in vivo, ip, intraperitoneal route, read-out: absolute bioavailability (F)
  bioavailability: > 100%
[3]
  Vd: 8.2 L/kg
  clearance: 40 mL/min/kg
[4]
  AUC(0-inf): 25600 ng·h/mL
  AUC(0-t): 21800 ng·h/mL
  Cmax: 3700 ng/mL
  Tmax: 2 h
  MRT last: 7.46 h
[5]
  AUC(0-inf): 5630 ng·h/mL
  AUC(0-t): 5350 ng·h/mL
  Cmax: 692 ng/mL
  Tmax: 2 h
  MRT last: 6.49 h
[6]
  AUC(0-inf): 417 ng·h/mL
  AUC(0-t): 400 ng·h/mL
  C0: 879 ng/mL
  half-life: 2.37 h
  MRT last: 1.09 h
[7]
  AUC(0-inf): 17800 ng·h/mL
  AUC(0-t): 14800 ng·h/mL
  Cmax: 1350 ng/mL
  Tmax: 4 h
  MRT last: 9.05 h
[8]
  AUC(0-inf): 815 ng·h/mL
  AUC(0-t): 791 ng·h/mL
  Cmax: 1950 ng/mL
  Tmax: 0.03 h
  MRT last: 0.72 h
